Source: patent US20120190748A1, “GREATER UTILITY WITH THYROID HORMONE” (priority 2009, published 2012)

Columns and labels:
[1] = Case report: oral thyroid hormone regimens in one subject (Sam) after radioactive iodine ablation for Grave's disease; type: in vivo, human
Protocol: The subject (Sam), of this case report, was treated with radioactive iodine ablation with a relatively low dose. Prior to diagnosis of Grave's disease, Sam was never known to have free T4 levels above median, and had always maintained the same weight +/−3 lbs beyond the age of 18.
Over the next several years, attempting to ameliorate symptoms, Sam attempted to treat the hypothyroid state with the following means: 0.175 mg of T4 OD, resulting in palpitations, anxiety, stiffness, chest tightness, insomnia, sclerotic skin changes, sweating and heat intolerance within 6 months of initiating therapy. The severity of the symptoms required Sam to return to return to 0.15 mg OD of T4 within 1 week of experiencing the symptoms—remaining at that dose for 6 weeks. […] This was followed by an attempt to treat with: 0.125 mg of T4 with 0.005 mg of T3 OD, resulting in palpitations, anxiety, stiffness, chest tightness, insomnia, sclerotic skin changes, sweating and heat intolerance within 3 weeks of initiating therapy. The severity of the symptoms required Sam to return to 0.15 mg OD of T4 within 2 days of experiencing these symptoms—remaining at that dose for 6 weeks with resolution of the adrenergic symptoms. This was followed by an attempt to treat with: 0.035 mg of T3 OD, resulting in palpitations, anxiety, stiffness, chest tightness, insomnia, sclerotic skin changes, sweating and heat intolerance within 1 week of initiating therapy. The severity of the symptoms required Sam to return to 0.15 mg OD of T4 within 1 day of experiencing these symptoms—remaining at that dose for 6 weeks with resolution of the adrenergic symptoms. This was followed by an attempt to treat with: 0.005 mg of T3 q3:25hours, resulting in palpitations, anxiety, stiffness, chest tightness, insomnia, sclerotic skin changes, sweating and heat intolerance within 1 week of initiating therapy. The severity of the symptoms required Sam to return to 0.15 mg OD of T4 within 1 day of experiencing symptoms—remaining at that dose for many years, with continued nasal congestion and dysphoria.
Then the symptoms all stopped. […] Sam continued this dose for several months. […] Dysphoria and nasal congestion were improved over that which was present with once daily dosing, but still remained present, so Sam attempted to treat with the following: 0.075 mg of T4 q6hours, resulting in dysphoria, nasal congestion, and mild to moderate palpitations, anxiety, stiffness, chest tightness, insomnia, sweating and heat intolerance for 2 days, then the symptoms stopped, until Sam changed treatment to: 0.05 mg of T4 q4hours, resulting in dysphoria, nasal congestion, and mild palpitations, anxiety, stiffness, chest tightness, insomnia, sweating and heat intolerance for 2 days, then the symptoms stopped, with an even greater sense of well being than had been experienced on previous treatment regimes, but Sam further increased the dose to: 0.05 mg of T4 q3hrous, resulting in dysphoria, nasal congestion, and mild palpitations, anxiety, stiffness, chest tightness, insomnia, sclerotic skin changes, sweating and heat intolerance for 3 weeks, then the symptoms stopped. Sam remained on this dose for a period of approximately 3 years. […] Weight loss of 40 lbs (with a resulting body fat of 26% by electrical impedance, and lean mass of 100 lbs.) over the first 15 months occurred followed by weight gain of 15 lbs over the next 15 months (with a resulting body fat of 28% by electrical impedance, and lean mass of 108 lbs.). A reduced incidence and duration of common colds was noted, while at steady state over the 3 year period. On one occasion, when the expiry date of T4 administered was several months nearer to the time of administration, than that of T4 typically administered by Sam, within one day, onset of dysphoria, nasal congestion, palpitations, insomnia, anorexia, night sweats, cold sweats, cold intolerance, weakness and the sensation of weight loss occurred; the symptoms resolved within three days. […]

[2] = test system: Thyroid Binding Globulin, Transthyretin and Albumin; conditions: cited from earlier work; for bound within the blood stream (protein binding): bound by Thyroid Binding Globulin, Transthyretin and Albumin
[3] = extended due to protein binding; human body; cited from earlier work
[4] = T3 compared with T4; cited from earlier work
[5] = 0.05 mg of T4 q3hrous, after the first 15 months
[6] = 0.05 mg of T4 q3hrous, after the next 15 months
[7] = 0.05 mg of T4 q3hrous, at 2.7 years
[8] = dose reduced to 0.05 mg of T4 q4hours, within the first 2 weeks

SMILES: N[C@@H](Cc1cc(I)c(Oc2ccc(O)c(I)c2)c(I)c1)C(=O)O [T3, 3,5,3′ triiodo-L-thyronine]
- time to palpitations, anxiety, stiffness, chest tightness, insomnia, sclerotic skin changes, sweating and heat intolerance after initiating therapy ([1]; 0.005 mg of T3 q3:25hours): ≤ 1 week
- time to palpitations, anxiety, stiffness, chest tightness, insomnia, sclerotic skin changes, sweating and heat intolerance after initiating therapy ([1]; 0.035 mg of T3 OD): ≤ 1 week
- bound within the blood stream (protein binding) [2]: 99.6%
- biological half-life [3]: approximately 1 days
- stability (iodine atoms removed by hydrolysis) [4]: more unstable

SMILES: N[C@@H](Cc1cc(I)c(Oc2cc(I)c(O)c(I)c2)c(I)c1)C(=O)O [T4, 3,5,3′,5′ tetraiodo-L-thyronine]
- duration of dysphoria, nasal congestion and mild adrenergic symptoms ([1]; 0.05 mg of T4 q3hrous): 3 weeks
- body fat by electrical impedance [1, 5]: 26%
- lean mass [1, 5]: 100 lbs
- body fat by electrical impedance [1, 6]: 28%
- lean mass [1, 6]: 108 lbs
- Free T4 concentration, gradual decrease ([1]; 0.05 mg of T4 q3hrous, approximately 3 years, remained far above normal): 15%
- EKG heart rate (normal sinus rhythm) [1, 7]: 71 beats per minute
- blood glucose [1, 7]: normal blood glucose
- lipid profile [1, 7]: exceptional lipid profile
- serum calcium [1, 7]: slightly above the upper limit of normal
- weight loss ([1]; 0.05 mg of T4 q3hrous, over the first 15 months): 40 lbs
- weight gain ([1]; 0.05 mg of T4 q3hrous, over the next 15 months): 15 lbs
- duration of dysphoria, nasal congestion and mild adrenergic symptoms ([1]; 0.05 mg of T4 q4hours (first time)): 2 days
- duration of dysphoria, nasal congestion and mild to moderate adrenergic symptoms ([1]; 0.075 mg of T4 q6hours): 2 days
- weight loss ([1]; 0.075 mg of T4 q8hours): 2-3 pounds
- duration of dysphoria, nasal congestion and mild to moderate adrenergic symptoms ([1]; 0.088 mg of T4 q8hours): three weeks
- effect on previous symptoms (weight gain, body fat increase, insomnia, anorexia, night sweats, cold intolerance, weakness etc.) ([1]; 0.088 mg of T4 q8hours): resolution of the previous symptoms within one week
- T4 concentrations ([1]; 0.088 mg of T4 q8hours, continued for several months): higher than normal range
- duration of dysphoria, nasal congestion and mild to moderate adrenergic symptoms ([1]; 0.1 mg of T4 q8hours): three weeks
- weight gain ([1]; 0.1 mg of T4 q8hours): 2-3 pounds
- change in weight (mean, persistent) ([1]; 0.125 mg OD of T4, following several months of treatment): 5 lbs
- time to palpitations, anxiety, stiffness, chest tightness, insomnia, sclerotic skin changes, sweating and heat intolerance after initiating therapy ([1]; 0.175 mg of T4 OD): ≤ 6 months
- free T4 ([1]; 0.175 mg of T4 OD, in the 6th month): free T4 rose
- free T4 levels ([1]; T4 titrated to doses ranging from 0.1 mg OD to 0.25 mg OD): 28 pmol/L
- duration of dysphoria, nasal congestion, palpitations, insomnia, anorexia, night sweats, cold intolerance, weakness etc. ([1]; dose reduced to 0.05 mg of T4 q4hours): 8 weeks
- free T4 rise [1, 8]: 22%
- weight loss [1, 8]: 2-3 lbs
- bound more tightly than T3 ([2]; T4 relative to T3): roughly 10 times
- bound within the blood stream (protein binding) [2]: 99.96%
